This is an account of results in article PMC12051030, “Identification of inhibitors of the Salmonella FraB deglycase, a drug target” (FEBS Open Bio, 2025).

Where two headings read alike, the source gives them in different places.

Broadly, the kcat is the maximal rate divided by the concentration of active sites. A word on the kcat/Km: it is the turnover number divided by the Michaelis constant. A word on the Km: it is the substrate concentration at which the rate is half of its maximum.

Series [1] deals with T1, FraB (Salmonella enterica subsp. enterica serovar Typhimurium, UniProt Q8ZLD0). In words: FraB assay, Michaelis–Menten kinetics with substrate. In kind it is biochemical. As to the method:
The substrate for FraB, 6‐P‐F‐Asp, was synthesized as previously described. FraB activity was monitored as described previously, with the following changes. The final reaction (30 μL) consisted of 25 mM HEPES pH 8 (at 20 °C), 5 mM MgCl2, 0.1 mM ethylene glycol tetraacetic acid (EGTA), 0.5 mM NAD^+, 1 mU G6PD from Leuconostoc mesenteroides (#LS003981; Worthington Biochemicals, Lakewood, NJ, USA), 100 nM His6‐FraB, and 0–3 mM 6‐P‐F‐Asp. The reaction mixture without substrate (29 μL) was added to one well of a 384‐well polystyrene white μClear® microplate (#781095; Greiner Bio‐One, Monroe, NC, USA) and incubated at 37 °C for 2 min, prior to the addition of 1 μL substrate to initiate the reaction. NADH generation was monitored using either absorbance (340 nm) or fluorescence (350 nm excitation, 450 nm emission) and with either an INFINITE M1000 PRO (Tecan, Mannedorf, Switzerland) or Synergy H1 (Biotek, Winooski, VT, USA) plate reader. Absorbance/fluorescence was plotted against time and slopes were obtained by linear regression analyses. These slopes were converted into initial velocities by dividing them by either the absorbance extinction coefficient (ε340 = 6,220 M ^−1·cm^−1) or the molar fluorescence determined based on standard curves obtained in different plate readers (23,646 RFUs·μM ^−1, Tecan; 285,108 RFUs·μM ^−1, Biotek; Fig. S2). […]

The target of series [2] is T1, FraB. The settings on record: previously reported; cited from earlier work.
Substrate in series [3]: O=C(O)C[C@H](NCC1(O)O[C@H](COP(=O)(O)O)[C@@H](O)[C@@H]1O)C(=O)O
Put plainly: FraB assay, Michaelis–Menten kinetics with substrate. It counts as biochemical, Salmonella. The settings on record: pH 8.0. As to the method:
The substrate for FraB, 6‐P‐F‐Asp, was synthesized as previously described. FraB activity was monitored as described previously, with the following changes. The final reaction (30 μL) consisted of 25 mM HEPES pH 8 (at 20 °C), 5 mM MgCl2, 0.1 mM ethylene glycol tetraacetic acid (EGTA), 0.5 mM NAD^+, 1 mU G6PD from Leuconostoc mesenteroides (#LS003981; Worthington Biochemicals, Lakewood, NJ, USA), 100 nM His6‐FraB, and 0–3 mM 6‐P‐F‐Asp. The reaction mixture without substrate (29 μL) was added to one well of a 384‐well polystyrene white μClear® microplate (#781095; Greiner Bio‐One, Monroe, NC, USA) and incubated at 37 °C for 2 min, prior to the addition of 1 μL substrate to initiate the reaction. NADH generation was monitored using either absorbance (340 nm) or fluorescence (350 nm excitation, 450 nm emission) and with either an INFINITE M1000 PRO (Tecan, Mannedorf, Switzerland) or Synergy H1 (Biotek, Winooski, VT, USA) plate reader. Absorbance/fluorescence was plotted against time and slopes were obtained by linear regression analyses. These slopes were converted into initial velocities by dividing them by either the absorbance extinction coefficient (ε340 = 6,220 M ^−1·cm^−1) or the molar fluorescence determined based on standard curves obtained in different plate readers (23,646 RFUs·μM ^−1, Tecan; 285,108 RFUs·μM ^−1, Biotek; Fig. S2). These initial velocities (v o) in turn were plotted against [6‐P‐F‐Asp] to obtain Michaelis–Menten curves that were fit to the formula v o = (V max × [S])/(K m + [S]) by Kaleidagraph (Version 4.5.3; Synergy Software, Reading, PA, USA). The activity of recombinant FraB (Fig. S3) was similar to that as reported previously.

Setting [4] is: other: newer batches of substrate.
Setting [5] is: other: representative Michaelis-Menten plot, Fig. S3, curve-fit errors.

In the case of `O=C(O)C[C@H](NCC1(O)O[C@H](COP(=O)(O)O)[C@@H](O)[C@@H]1O)C(=O)O` (stereo partly shown) [6‐P‐F‐Asp, 6‐phosphofructose‐aspartate], the K m on FraB [1] (approximate value used for [S]/K m) was ~ 40 μM; at FraB [1] (newer batches of substrate), 0.042 ± 0.007 mM; on FraB [2] it was 116 ± 12 µM. For the same molecule, the k cat at FraB [2] was 1.05 ± 0.167 s⁻¹. Besides, the “k cat/K m” value on FraB [2] is given as 543 min^−1 mM ^−1.

B1: FraB (Salmonella enterica subsp. enterica serovar Typhimurium str. LT2) (protein)
chain: MMGMKETVSNIVTSQAEKGGVKHVYYVACGGSYAAFYPAKAFLEKEAKALTVGLYNSGEFINNPPVALGENAVVVVASHKGNTPETIKAAEIARQHGAPVIGLTWIMDSPLVAHCDYVETYTFGDGKDIAGEKTMKGLLSAVELLQQTEGYAHYDDFQDGVSKINRIVWRACEQVAERAQAFAQEYKDDKVIYTVASGAGYGAAYLQSICIFMEMQWIHSACIHSGEFFHGPFEITDANTPFFFQFSEGNTRAVDERALNFLKKYGRRIEVVDAKELGLSTIKTTVIDYFNHSLFNNVYPVYNRALAEARQHPLTTRRYMWKVEY
With B1, in series [3] (setting [4]), the kcat came to 0.95 ± 0.012 s⁻¹ and the specificity constant (kcat/Km) is listed as 1,357 min^−1 mM ^−1. Further, in series [3] (setting [5]), the Km turned out to be 67 ± 8 µM, the kcat stood at 1.16 ± 0.00317 s⁻¹ and the kcat/Km was found to be 1040 min⁻¹ mM⁻¹.
